# Assay results published in patent US20090028795A1, “NOD1 as an Anti-Tumor Agent” (priority 2005, published 2009).
# Non-standard residues stand in square brackets, D forms with d. No end group written: not given here. DAP = diaminopimelic acid
# Key:
# Assay type in all cases: cell-based, human
# MCF-7 cells [1] = assay: Propidium iodide exclusion cell death assay, wild-type (parental/Blasto) MCF-7 cells; conditions: for cell death / apoptosis: wild type cells, agent alone
# Protocol: (§1) Cell viability assays. Propidium iodide exclusion assay: Cells were stimulated as indicated for 2 days. Subsequently, cells were harvested, washed twice in FACS buffer (PBS containing 1% FCS and 0.1% NaN3) and resuspended in propidium iodide (PI)-containing FACS buffer (4 ug/ml). The extent of cell death was analyzed with a FACSCalibur flow cytometer (Becton Dickinson, Mountain View, Calif.). DAPI staining: MCF-7 cells were plated in chamber slides, and stimulated for 2 days. Cells were washed with PBS and apoptotic nuclei were stained with 1 μg/ml DAPI (Sigma Chemical Co., St. Louis, Mo.). Cells were fixed in 4% paraformaldehyde and examined by fluorescence microscopy.
# (§2) To further investigate the role of Nod1 in apoptosis, a variety of cell types were incubated with the Nod1 ligand, […] (γTriDAP), which specifically activates Nod1. The cell types tested included the parental MCF-7 cell line, the Nod1-deficient MCF-7C20 clone, and a cell line engineered to contain an additional human Nod1 allele (MCF-7Nod1) so that Nod1 was over-expressed. To determine whether the resistance of C20 cells to γTriDAP-induced apoptosis resulted from the absence of Nod1, human Nod1 was stably expressed in MCF-7 C20 cells to produce Nod1-sufficient C20 cells (C20/Nod1). As another control, the parental MCF-7 cell line was transfected with an empty retroviral vector to generate MCF-7 Blasto cells. Cells were treated with γTriDAP in the presence or absence of cycloheximide (CHX) and cell death was then determined by propidium iodide staining and flow cytometry.
# MCF-7 Nod1 cells = assay: Propidium iodide exclusion cell death assay, MCF-7 cells over-expressing Nod1; conditions: MCF-7Nod1 cells, cycloheximide and γTriDAP, 48 h treatment
# Protocol: as §1, §2
# MCF-7 Nod2 cells = assay: Apoptosis (PI, flow cytometry) in MCF-7 cells over-expressing Nod2; conditions: 20 ug/ml plus CHX, 48 h
# Protocol: In FIG. 5A, MCF-7 Blasto, MCF-7 Nod1 and MCF-7 Nod2 were treated with the NOD1 ligand γTriDAP or the Nod2 ligand muramyl dipeptide (MDP)(20 ug/ml each) in the presence or absence of CHX for 48 h. Cells were then incubated with PI and apoptotic cell death was measured by flow cytometry. […] In FIG. 5B, expression of NOD1 and NOD2 was confirmed by Western blot analysis using anti-Myc antibodies for detection of the recombinant proteins. […] MCF-7 Blasto, MCF-7 Nod1 and MCF-7 Nod2 cells were stimulated with γTriDAP or MDP in the presence or absence of CHX (0.5 ug/ml) for 24 h. Cell supernatants were then harvested and assayed for IL-8 secretion.
# Cell viability assays. Propidium iodide exclusion assay: Cells were stimulated as indicated for 2 days. […] The extent of cell death was analyzed with a FACSCalibur flow cytometer (Becton Dickinson, Mountain View, Calif.). […] Cells were fixed in 4% paraformaldehyde and examined by fluorescence microscopy.
# Experiments were also performed to ascertain whether activation of Nod2 by its specific activator, muramyl dipeptide (MDP), would initiate apoptosis in parental MCF-7 cells or in MCF-7 cells over-expressing Nod2 (MCF-7 Nod2). Thus, γTriDAP or MDP were added to each of these lines and apoptosis (FIG. 5A) and IL-8 production (FIG. 5C) were measured. […]
# [2] = tested on: MCF-7 C20 cells with Nod2; assay: Apoptosis in MCF-7 C20 cells complemented with Nod2; conditions: MCF-7 C20 complemented with Nod2 (data not shown)
# MCF-7 cells [3] = assay: Apoptosis in the presence of TNFα (FIG. 8C); conditions: with TNFα
# Protocol: FIG. 8A-D illustrate that a synergistic relationship exists between NOD1 and TNFα. FIG. 8A graphically illustrates that the percentage of apoptotic cells increases in dose-specific manner as the concentration of NOD1 increases from 0.0 to 100 μg/ml and the concentration of TNFα increases from 0.5 ng/ml to 1 ng/ml. FIG. 8B graphically illustrates that the percentage of apoptotic cells increases in dose-specific manner as the concentration of cycloheximide increases from 0.0 to 3 μg/ml and the concentration of TNFα increases from 0.5 ng/ml to 1 ng/ml. […] FIG. 8D illustrates NOD1 expression at various time points after exposure of MCF-7 cells to TNFα.
# SK-BR3 = assay: Apoptosis (PI staining), SK-BR3 cells
# Protocol: as §1
# (§3) To determine if Nod1-dependent apoptosis occurs in other human cell lines, a series of epithelial cell lines were examined where Nod1 was stably expressed to enhance sensitivity to activation of the Nod1 pathway. Cells were treated with TNFα (T) and γTriDAP (γ) in the presence or absence of CHX (C) and monitored for viability by PI staining as a measure of apoptosis (Table 1).
# A431 = assay: Apoptosis (PI staining), A431 cells stably expressing Nod1; conditions: A431, Nod1 stably expressed; treatment as labelled
# Protocol: as §1, §3
# HT29 = assay: Apoptosis (PI staining), HT29 cells stably expressing Nod1; conditions: HT29, Nod1 stably expressed; treatment as labelled
# Protocol: as §1, §3
substance,measurement,setting,value
D-Ala-L-Glu-Diaminopimelic acid ([dA]-Glu-[DAP]; also: Glu joined to DAP through its gamma carboxyl (γTriDAP)),cell death / apoptosis,MCF-7 cells [1],No cell death
same,cell death / apoptosis,MCF-7 cells [1]; listed as 7-TriDAP,did not induce apoptosis
same,cell death,"MCF-7 cells [1]; wild-type MCF-7, γTriDAP 50 ug/ml in the presence of cycloheximide 3 ug/ml, 48 h",about 25%
same,cell death,MCF-7 Nod1 cells,~60%
same,apoptosis,MCF-7 Nod2 cells,produced cell death
same,apoptosis,[2],did not result in apoptosis
same,apoptosis in the presence of TNFα,MCF-7 cells [3],increases apoptosis
same,apoptosis,"SK-BR3; SK-BR3, Nod1 stably expressed, treatment as labelled",only undergo apoptosis when γTriDAP was added together with TNFα and CHX
same,apoptosis of SKBR3 cells,SK-BR3; plus TNFα and cycloheximide (FIG. 9B),highest
same,apoptosis,A431,only undergo apoptosis when γTriDAP was added together with TNFα and CHX
same,apoptosis,HT29,poorly responsive
